Target: T1, human GPR119 receptor (Homo sapiens, UniProt Q8TDV5)
T1 construct: expressed in transfected cells
T1 sequence (Q8TDV5 1-335): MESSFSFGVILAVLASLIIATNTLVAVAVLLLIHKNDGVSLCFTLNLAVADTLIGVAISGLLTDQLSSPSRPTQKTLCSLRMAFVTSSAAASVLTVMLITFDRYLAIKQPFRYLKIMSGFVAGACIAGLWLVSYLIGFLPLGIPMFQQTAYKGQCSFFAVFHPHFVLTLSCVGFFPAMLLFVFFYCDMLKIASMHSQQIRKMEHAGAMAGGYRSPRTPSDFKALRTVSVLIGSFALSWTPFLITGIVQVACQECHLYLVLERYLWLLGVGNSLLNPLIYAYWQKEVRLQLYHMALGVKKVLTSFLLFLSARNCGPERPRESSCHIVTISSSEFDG
Experiment: Human GPR119 activity assay (cAMP HTRF in HEK293-hGPR119 cells)
Format: cell-based
Details: cAMP stimulation in HEK293 cells stably expressing human GPR119, 20 min incubation, read-out: Agonist potency at the human GPR119, EC50
Experimental: Human GPR119 Activity Assay
Agonists to the human GPR119 receptor were characterized by measuring human GPR119 receptor-mediated stimulation of cyclic AMP (cAMP) in HEK 293 cells expressing the human GPR119 receptor.
Briefly, cAMP content was determined using a cAMP kit based on HTRF technology (Homogeneous Time-Resolved Fluorescence, Cisbio Cat. no. 62AM2PEC). HEK293 cells stably expressing the human GPR119 receptor (HEK293-hGPR119 cells) were cultured in DMEM (Gibco #31966-021) supplemented with 10% Bovine Calf Serum (Hyclone #SH30072.03), and, 500 μg/mL Hygromycin B (Roche Diagnostics 843555). At 80% confluency, cells were detached using Trypsine and aliquoted at a density of 5×10^6 cells/mL in freezing medium (DMEM (Gibco # 31966-021), 20% BCS (Hyclone #SH30072.03), 10% DMSO (Sigma #D2650) and stored at −135° C. On the experimental day, HEK293-hGPR119 cells were thawn and diluted to 0.4×10^6 cells/mL in assay buffer (1×HBSS (Gibco Cat. no. 14025-049), 20 mM Hepes (Gibco Cat. no. 15630-056), 0.1% BSA, pH 7.4) and incubated with test substances for 20 min at room temperature. After addition of HTRF reagents diluted in lysis buffer, the 96- or 384-well plates were incubated 1 hour, followed by measuring the fluorescence ratio at 665 nm/620 nm. […]

| Structure (SMILES) | EC50 |
| --- | --- |
| CC(C)(C)OC(=O)N1CCC(COc2ccc(-c3ccc(S(C)(=O)=O)cc3)nn2)CC1 [Example A1, tert-Butyl 4-[({6-[4-(methylsulfonyl)phenyl]pyridazin-3-yl}oxy)methyl]piperidine-1-carboxylate] | 46 nM |
| CCN(Cc1ccc(-c2ccc(S(C)(=O)=O)cc2)nn1)C1CCN(C(=O)OC(C)(C)C)CC1 [Example A4, tert-Butyl 4-[ethyl({6-[4-(methylsulfonyl)phenyl]pyridazin-3-yl}methyl)amino]-piperidine-1-carboxylate] | 83 nM |
